Experimental data published in BindingDB's records for PubMed 25415869 (Genentech).

How the values were obtained:
[1] = molecular target: Serine/threonine-protein kinase PAK 1 (Homo sapiens) (UniProt Q13153); assay: Inhibition of PAK1 (unknown origin)
[2] = molecular target: Serine/threonine-protein kinase PAK1; assay: Inhibition of human recombinant PAK1 using KKRNRRLSVA as substrate assessed as inhibition constant preincubated with compound for 10 mins followed by substrate addition and measured after 60 mins by FRET assay
[3] = molecular target: Serine/threonine-protein kinase PAK 1 (Homo sapiens) (UniProt Q13153); assay: Inhibition of PAK1 (unknown origin) using 5-FAM-KPDRKKRYTVVGNPY-amide as substrate incubated for 120 mins by caliper off-chip mobility shift assay
[4] = molecular target: Serine/threonine-protein kinase PAK 1 (Homo sapiens) (UniProt Q13153); assay: Inhibition of PAK1 (unknown origin) in presence of ATP by Z-LYTE enzymatic kinase assay
[5] = molecular target: Serine/threonine-protein kinase PAK 1 (Homo sapiens) (UniProt Q13153); assay: Inhibition of PAK1 (unknown origin) in presence of ATP

Chain of Serine/threonine-protein kinase PAK 1 (Homo sapiens) (Q13153 whole entry, looked up): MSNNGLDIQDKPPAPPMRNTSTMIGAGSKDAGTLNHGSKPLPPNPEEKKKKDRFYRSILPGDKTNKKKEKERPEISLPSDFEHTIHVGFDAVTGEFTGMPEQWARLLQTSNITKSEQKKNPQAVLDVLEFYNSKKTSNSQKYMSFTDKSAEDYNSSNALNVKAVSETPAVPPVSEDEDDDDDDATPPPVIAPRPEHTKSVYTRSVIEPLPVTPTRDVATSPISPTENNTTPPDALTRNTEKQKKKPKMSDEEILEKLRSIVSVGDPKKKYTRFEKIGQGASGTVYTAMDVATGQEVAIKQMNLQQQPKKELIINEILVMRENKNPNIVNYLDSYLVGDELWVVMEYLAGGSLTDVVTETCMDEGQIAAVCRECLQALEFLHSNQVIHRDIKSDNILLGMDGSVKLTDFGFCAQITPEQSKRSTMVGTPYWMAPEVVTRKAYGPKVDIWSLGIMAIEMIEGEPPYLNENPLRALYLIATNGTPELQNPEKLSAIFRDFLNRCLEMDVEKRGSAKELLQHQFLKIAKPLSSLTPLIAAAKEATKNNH

CCn1c(=O)c(-c2ccc(-c3noc(C)n3)cc2Cl)cc2cnc(Nc3ccc(C4CCN(C)CC4)cc3)nc21
IC50 [1]: 4 nM

Cc1nc2ccc(C#CC(C)(C)O)cc2n1-c1ncnc(N)n1
Ki [2]: 15.3 µM

CCN1c2ccc(F)cc2N=C(N2CCN(C)CC2)c2cc(Cl)ccc21
IC50 [1]: 340 nM

O=C(c1ccccc1Cl)c1n[nH]c2ncc(-c3cnn(C4CCNCC4)c3)cc12
IC50 [3]: 20 nM

CN1CCN(c2ccc(Nc3ncc4ccc(=O)n(C5CCCC5)c4n3)cc2)CC1 [Pyrido[2,3-d]pyrimidin-7-one 1]
IC50 [4]: 483 nM

O=C1NC(=O)c2cc(-c3ccccn3)ccc21
IC50 [5]: > 100 µM

CCn1c(=O)c(-c2ccc(Cl)cc2Cl)cc2cnc(Nc3ccc(N4CCN(C)CC4)cc3)nc21 [FRAX414]
IC50 [4]: 20 nM

CCN(Cc1ccc2[nH]cnc2c1Cl)c1nccc(Nc2cc(C(C)C)[nH]n2)n1
IC50 [1]: 1.6 nM

CN[C@@H]1C[C@H]2O[C@@](C)([C@@H]1OC)n1c3ccccc3c3c4c(c5c6cc(O)ccc6n2c5c31)C(=O)NC4
IC50 [1]: 1 nM

CN(Cc1ccc2[nH]ccc2n1)c1nccc(Nc2cc([C@H]3C[C@@H]3F)[nH]n2)n1
IC50 [1]: 8 nM
